Patent publication US8709976B2, “Anthranilic diamide compositions for propagle coating” (E I du Pont de Nemours and Company, priority 2010, dated 2014)

Assay: Corn greenhouse trial: uptake of Compound 2 into leaves from coated seeds
Conditions: corn (maize), in vivo
Procedure: Plant leaves were macerated using a Geno/Grinder 2000 bead beater homogenizer (SPEX CertiPrep, Metuchen, N.J., USA), and then acetonitrile (˜5 mL/g of leaf tissue) was added. The mixture was further shaken for 1 minute using the Geno/Grinder homogenizer, and then centrifuged. The acetonitrile extract supernatant was analyzed by high performance liquid chromatography with tandem mass spectrometry detection (HPLC/MS/MS) using a Waters (Milford, Mass. USA) Alliance HT2795 chromatograph and Zorbax SB C18 (2.1×50 mm, 5 microns) column eluted with mixtures of water and acetonitrile containing 0.1% (volume/volume) of formic acid, with detection by a Waters Quattro Micro API Mass Spectrometer using electrospray ionization (ESI+). Standard solutions of Compound 1 and Compound 2 were prepared by adding measured amounts of stock solutions of Compound 1 or Compound 2 in acetonitrile or tetrahydrofuran to acetonitrile extracts of leaves from plants grown from untreated seeds.
For corn and Compound 2, a 1:1 weight ratio of nonionic fatty alcohol ethoxylate with Compound 2 was prepared with each additive by mixing the appropriate amount of either 16.7 wt % or 20.0 wt % solution in water of the nonionic fatty alcohol ethoxylate with 1.0 g of Compound 2.
Into a FlackTek™ Max 100 disposable plastic cup were placed 35.0 grams (100 seeds) of corn seeds. […]

## CNC(=O)c1cc(Cl)cc(C)c1NC(=O)c1cc(Br)nn1-c1ncccc1Cl [Compound 2, 3-bromo-N-[4-chloro-2-methyl-6-[(methylamino)carbonyl]phenyl]-1-(3-chloro-2-pyridinyl)-1H-pyrazole-5-carboxamide]
  Uptake microgram/g of leaf: 0.42 microgram/g of leaf
